Data set [1] has as its system NCI-H526. The data set is described as follows: Effect on global H3K4me1 level in human NCI-H526 cells at 10 to 1000 nM measured after 24 hrs by Western blot analysis. The following applies: dose 10-1000 nM. The format is functional, cell-based.
Data set [2] is described as follows: Effect on cleaved PARP level in human NCI-H889 cells assessed as relative expression at 1000 nM measured after 10 days by Western blot analysis (reference value: 0.33). The format is functional. The conditions noted are these: time 10 day. On the technique in general: In western blotting, separated proteins are transferred to a membrane and probed.
Data set [3] in a line: Effect on cleaved PARP level in human NCI-H510 cells assessed as relative expression at 1000 nM measured after 10 days by Western blot analysis (reference value: 0.02). The format is functional, NCI-H510A. The following applies: time 10 day.
The nature of data set [4]: Effect on cleaved PARP level in human NCI-H69 cells assessed as fold change at 10 nM measured after 10 days by Western blot analysis (reference value: 1.00). The format is functional. The following applies: time 10 day.
Data set [5] concerns NCI-H526. Put plainly: In vivo inhibition of LSD1 in human NCI-H526 cells xenografted in nude mouse assessed as change in TSPAN8 gene expression administrated daily for 5 days by qRT-PCR analysis. The format is functional, organism-based. The following applies: dose 0.02-135 mg/kg, time 5.0 day.
A short description of data set [6]: Antitumor activity against human PDX L44 cells xenografted in mouse assessed as tumor growth inhibition at 1.5 mg/kg administered daily measured for 30 days relative to control. The format is functional. The following applies: PDX LX44, 720 h, time 30 day, read-out: TGI.
The nature of data set [7]: Effect on cleaved PARP level in human NCI-H146 cells assessed as relative expression at 10 nM measured after 7 days by Western blot analysis (reference value: […]). The format is functional. The conditions noted are these: time 7 day.
The next data set addresses D-amino-acid oxidase (Homo sapiens, UniProt P14920). Put plainly: Binding affinity to D-amino acid oxidase (unknown origin) assessed as apparent inhibition constant. The following applies: read-out: Ki(app).
The nature of data set [8]: Effect on cleaved PARP level in human NCI-H2171 cells assessed as relative expression at 10 nM measured after 14 days by Western blot analysis (reference value: 0.01). The format is functional. The following applies: time 14 day.
Data set [9] can be described thus: Toxicity in rat assessed as congestion in lymphoid organs measured for 28 days. The conditions noted are these: in vivo, 672 h, time 28 day.
Data set [10] is described as follows: Toxicity in dog assessed as declining clinical condition measured for 28 days. The following applies: in vivo, 672 h, time 28 day. Details: species or system Canis lupus familiaris.
The nature of data set [11]: Effect on cleaved PARP level in human NCI-H2171 cells assessed as fold change at 100 nM measured after 14 days by Western blot analysis (reference value: 1.00). The conditions noted are these: time 14 day. The format is functional.
In a further data set the test system is NCI-H446. Put plainly: Effect on SYP gene expression in human NCI-H446 cells at 1 uM measured after 4 days by qRT-PCR analysis. The format is functional, cell-based. The conditions noted are these: time 4.0 day. In general terms: Real-time PCR tracks product formation cycle by cycle.
Data set [12] in a line: Effect on cleaved PARP level in human NCI-H526 cells assessed as relative expression at 10 nM measured after 7 days by Western blot analysis (reference value: 0.57). The conditions noted are these: time 7 day. The format is functional.
In data set [13] the test system is NCI-H526. Put plainly: Effect on cell cycle in human NCI-H526 cells assessed as cell accumulation at […] phase upto 1000 nM measured for 7 to 14 days by flow cytometry. The format is functional, cell-based. The following applies: time 7-14 day. (Flow cytometry measures light scatter and fluorescence of single cells or particles in a stream.)
Data set [14] is described as follows: Effect on cleaved PARP level in human NCI-H1694 cells assessed as relative expression at 100 nM measured after 14 days by Western blot analysis (reference value: 0.25). The format is functional. The following applies: time 14 day.
Data set [15] can be described thus: Effect on cleaved PARP level in human NCI-H889 cells assessed as fold change at 100 nM measured after 10 days by Western blot analysis (reference value: 1.00). The conditions noted are these: time 10 day. The format is functional.
Data set [16] in a line: Effect on cleaved PARP level in human NCI-H524 cells assessed as fold change at 10 nM measured after 7 days by Western blot analysis (reference value: 1.00). The following applies: time 7 day. The format is functional.
The nature of data set [17]: Toxicity in mouse xenografted with human NCI-H526 cells assessed as grooming behaviour at 1.5 mg/kg, po administered daily measured for 30 days. The format is organism-based. The conditions noted are these: in vivo, 720 h, time 30 day.
Data set [18] deals with Lysine-specific histone demethylase 1A (Homo sapiens, UniProt O60341). The conditions noted are these: NCI-H526, dose 1-10000 nM, time 1-7 day.
Description: Inhibition of LSD1 in human NCI-H526 cells assessed as change in IGFBP2 gene expression treated for 1 to 7 days by qRT-PCR analysis
Data set [19] in a line: Effect on cleaved PARP level in human NCI-H524 cells assessed as relative expression at 1000 nM measured after 7 days by Western blot analysis (reference value: 0.63). The format is functional. The conditions noted are these: time 7 day.
A short description of data set [20]: Effect on cleaved PARP level in human NCI-H146 cells assessed as fold change at 1000 nM measured after 7 days by Western blot analysis (reference value: 1.00). The format is functional. The conditions noted are these: time 7 day.
Data set [21] in a line: Effect on cleaved PARP level in human NCI-H1694 cells assessed as fold change at 10 nM measured after 7 days by Western blot analysis (reference value: 1.00). The format is functional. The following applies: time 7 day.
The test system of data set [22] is NCI-H526. Put plainly: In vivo inhibition of LSD1 in human NCI-H526 cells xenografted in nude mouse assessed as change in FEZ1 gene expression measured after 24 hrs post single administration by qRT-PCR analysis. The format is functional, organism-based. The conditions noted are these: dose 0.06-135 mg/kg.
Data set [23] can be described thus: Toxicity in dog assessed as morbidity measured for 28 days. Set-up: species or system Canis lupus familiaris. The conditions noted are these: in vivo, 672 h, time 28 day.
The next data set has as its system NCI-H510A. Put plainly: Antitumor activity against human NCI-H510A cells xenografted in nude mouse assessed as mean tumor volume at 1.5 mg/kg, po administered daily measured twice weekly (reference value: 1028 +/- 182 mm3). The format is functional.
The nature of data set [24]: Effect on cleaved PARP level in human NCI-H1694 cells assessed as relative expression at 10 nM measured after 14 days by Western blot analysis (reference value: 0.25). The conditions noted are these: time 14 day. The format is functional.
A short description of data set [25]: Effect on cleaved PARP level in human NCI-H1694 cells assessed as relative expression at 100 nM measured after 7 days by Western blot analysis (reference value: 0.25). The format is functional. The following applies: time 7 day.
Data set [26] is described as follows: Effect on cleaved PARP level in human NCI-H526 cells assessed as relative expression at 10 nM measured after 10 days by Western blot analysis (reference value: 0.81). The format is functional. The conditions noted are these: time 10 day.
Data set [27] in a line: Effect on cleaved PARP level in human NCI-H2171 cells assessed as fold change at 10 nM measured after 14 days by Western blot analysis (reference value: 1.00). The following applies: time 14 day. The format is functional.
Data set [28] is described as follows: Effect on cleaved PARP level in human COLO-668 cells assessed as fold change at 100 nM measured after 10 days by Western blot analysis (reference value: 1.00). The format is functional. The conditions noted are these: time 10 day.
The nature of data set [29]: Effect on cleaved PARP level in human NCI-H1417 cells assessed as fold change at 10 nM measured after 7 days by Western blot analysis (reference value: 1.00). The format is functional. The following applies: time 7 day.
Data set [30] is described as follows: Tmax in mouse blood at 5 mg/kg, po by HPLC/MS/MS analysis. The format is ADME, organism-based.
The nature of data set [31]: Effect on cleaved PARP level in human NCI-H1694 cells assessed as fold change at 10 nM measured after 10 days by Western blot analysis (reference value: 1.00). The following applies: time 10 day. The format is functional.
The test system of data set [32] is NCI-H526. Put plainly: In vivo inhibition of LSD1 in human NCI-H526 cells xenografted in nude mouse assessed as change in TOX3 gene expression measured after 24 hrs post single administration by qRT-PCR analysis. The format is functional, organism-based. The following applies: dose 0.06-135 mg/kg.
Data set [33] can be described thus: Cmax in mouse at 5.5 mg/kg, ip by HPLC/MS/MS analysis. The conditions noted are these: in vivo. The format is ADME, organism-based.
The nature of data set [34]: Tmax in mouse at 5.5 mg/kg, ip by HPLC/MS/MS analysis. The conditions noted are these: in vivo. The format is ADME, organism-based.

SMILES strings stand for the structures. pKi: −log10 of the molar value. Active and inactive are the calls of the source. The calls are words filed in the database; no cut-off is given here.

Broadly, the pKi is the negative decadic logarithm of the Ki, by convention in mol/L. Broadly, the Tmax is the time at which the peak concentration occurs. The Cmax is the highest concentration seen after dosing.

Sequence of D-amino-acid oxidase (P14920 whole entry): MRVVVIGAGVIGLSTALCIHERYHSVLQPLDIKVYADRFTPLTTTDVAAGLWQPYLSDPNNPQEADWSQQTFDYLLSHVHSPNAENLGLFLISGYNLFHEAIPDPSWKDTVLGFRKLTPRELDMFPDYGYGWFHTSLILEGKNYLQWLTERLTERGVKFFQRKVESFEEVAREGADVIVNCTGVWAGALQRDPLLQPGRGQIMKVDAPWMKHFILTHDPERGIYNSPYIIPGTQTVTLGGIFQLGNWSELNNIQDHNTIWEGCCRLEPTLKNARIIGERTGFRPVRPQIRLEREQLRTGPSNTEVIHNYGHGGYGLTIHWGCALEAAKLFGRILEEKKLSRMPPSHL

On to `O=C(O)c1ccc(CN2CCC(CN[C@@H]3C[C@H]3c3ccccc3)CC2)cc1` [GSK2879552], for which the result in the data set on NCI-H526 [1], with NCI-H446 and with NCI-H526 [13] was inactive. Also, the Activity in data set [2] is listed as 0.91; in data set [3] it was 0.23; in data set [7] it was 2.37; in [8], 0.01; in data set [9], “Toxic”; in data set [10] it was “Toxic”. Further, the Activity is 0.48 in data set [12]; 0.23 in data set [14]; “Non-Toxic” in [17]; 1.12 in data set [19]; “Toxic” in [23]; 705 mm3 with NCI-H510A. In addition, the Activity in [24] is 0.22; in data set [25], 0.28; in data set [26], 0.46. The “fold change (FC)” value came to 1.74 in data set [4]; 1.8 in data set [11]; 2.25 in data set [15]; 0.99 in data set [16]; 1.12 in data set [20]; 1.22 in [21]. The “fold change (FC)” value is listed as 0.9 in data set [27], 0.69 in [28], 1.53 in data set [29] and 0.88 in data set [31]. In addition, the inhibition result (in the data set on NCI-H526 [5]; in data set [18]; in the data set on NCI-H526 [22]; with NCI-H526 [32]) was “Dose-Dependent Effect” in each case. Besides, the inhibition in vivo at 1.5 mg/kg in [6] is 69%. In addition, at D-amino-acid oxidase, the pKi is 3.28. Also, the Tmax in data set [30] was 15 min.

Turning to `c1ccc([C@@H]2C[C@H]2NC2CCNCC2)cc1`, the Cmax in [33] worked out at 466 ng/mL. In addition, the Tmax in data set [34] is 18 min.

These data come from ChEMBL document CHEMBL5705903, “A DNA Hypomethylation Signature Predicts Antitumor Activity of LSD1 Inhibitors in SCLC” (Cancer Cell, 2015).
